Converted amounts (≈) assume the structure as drawn. “Also recorded” adds a separate entry of the source. Like-named read-outs stand apart in the source and are kept apart here.
Columns and labels:
[1] = Solubility of SDC-TRAP-0063 (ganetespib placebo formulation, PEG-300); assay type: physicochemical; conditions: PEG-300, organic solvent or mixture, thermodynamic from solid; Lot 8; estimated; read-out: equilibrium solubility in PEG-300
[2] = tested on: Hsp90 client proteins (EGFR, MET, CDC2), Hsp70, DNA damage markers; assay: Pharmacodynamics in SCLC xenograft tumors; assay type: in vivo
[3] = mouse, in vivo; for Tumor Conc.: female, SCID
Protocol: Using the 10 mM stock solutions of the SDC-TRAP molecule and its Hsp90i binding moiety and effector moiety in DMSO, spiking solutions were prepared at 0.025, 0.05, 0.1, 0.5, 1, 5, 10, 50, 100, 250, and 500 μM in DMSO. 5 μL of each spiking solution was added to a 96-deep well plate.
Quality control standards were prepared from 5 μL of 0.1, 1, and 10 μM calibration standard spiking solution added in triplicate into 96-deep well plate and adding 50 μL of matrix (plasma or homogenized tumor).
To prepare test samples, test plasma was diluted as needed using blank plasma.
Tumor samples were pulverized in liquid nitrogen, weighed, and homogenized in PBS at 5× volume to sample weight. 50 μL of unknown plasma or homogenized tumor sample was mixed with 5 μL of DMSO. The samples were extracted by precipitating calibration standards, QC standards, and unknown samples with 200 μL of internal standard solution. The samples were mixed by vortex at room temperature for approximately 1.5 minutes, then centrifuge at 2-8° C. 150 μL of supernatant was collected and 25 μL of water added. Samples were mixed and analyzed by LC-MS/MS.
Samples of plasma, heart and tumor were excised from a euthanized mouse, homogenized in PBS at 5 times tissue weight and diluted in 5 μL DMSO/50 μL sample. Prior to analysis, 55 μL samples and calibration standards were precipitated in 200 μL methanol in 96-well plates. Samples were mixed on a vortex mixer for 1.5 minutes at 1500 rpm at room temperature, then centrifuged at 4400 rpm for 10 minutes at 8° C. 150 μL of each supernatant was transferred to a well of a new 96-well plate, and 25 μL of water was added and mixed with the sample. […] For the analysis of samples from female SCID mice, a gradient of solvent A (water/0.1% formic acid) and B (acetonitrile/0.1% formic acid) was used as in Table 2 below.
Various SDC-TRAP molecules and appropriate controls were administered to mice and after various time points the plasma and tumor concentration of these molecules was determined.

[4] = Artificial membrane permeability assay (PAMPA); conditions: same protocol, second table
Protocol: Pre-coated PAMPA plates were warmed to room temperature for at least 30 minutes prior to adding assay components.
Stock solutions were prepared with the SDC-TRAP molecules to be tested. In order to make a working solution, either 50 μL of 100 μM Stock in DMSO+950 μL of PBS or 50 μL of 200 μM stock was added to 96 deep well plate, resulting in a 5 μM final concentration or a 10 μM final concentration, respectively. 3000 μL of the working solution containing each compound to be tested was added to the appropriate well of a donor PAMPA plate. 200 μL of PBS was added into the corresponding wells of an acceptor PAMPA plates.
The acceptor plate was lowered onto the donor plate and allowed to incubate for five hours. After five hours, a 50 μL aliquot was removed from each well of each plate and added into a new 96 deep-well plate.
100 μL of methanol containing an internal standard was added to each aliquot and analyzed by LC/MS.
In order to calculate the permeability for each SDC-TRAP molecule and the control molecules, the following formula was used:

[5] = tested on: H2AX phosphorylation, HSP70, EGFR, MET; assay: Pharmacodynamics in CRC (HCT-116) xenograft tumors; assay type: in vivo, mouse
HER2 = HER2 degradation assay with BT-474 cell line (Example 12, FACS); assay type: cell-based, human
SK-OV-3 xenografts = assay: Antitumor activity in SK-OV-3 ovarian cancer xenografts; assay type: in vivo, female Balb/c nude mice; conditions: SDC-TRAP-0063 200 mg/kg group; irinotecan alone and with ganetespib; 200 mg/kg
Protocol: This model is sensitive to HSP90 inhibition.
However, once the dosing is discontinued all but 200 mg/kg of SDC-TRAP-0063 dose group maintained tumor growth inhibition for a prolonged period of time.

[6] = tested on: human breast cancer cell line BT-474; assay: Cytotoxicity assay (CellTiter-Glo, 72 h), BT-474; assay type: cell-based; conditions: BT-474, 72 hours, read-out: Cytotoxicity (IC50, nM) BT-474
Protocol: (§1) Cytotoxicity of SDC-TRAP molecules was determined in three cancer cell lines. […] 80 μL of CellTiter-Glo was added to each well, followed by room temperature incubation in the dark for 15 minutes. Cell was determined by luminescence. IC50 was calculated using XLfit™ software.

[7] = Chemical properties of SDC-TRAP-0063; assay type: physicochemical
Description: SDC-TRAP-0063 is a light yellow solid having the following chemical properties: […]

[8] = tested on: human urinary bladder cancer cell line RT-112; assay: Cytotoxicity assay (CellTiter-Glo, 72 h), RT-112; assay type: cell-based; conditions: RT-112, 72 hours, read-out: Cytotoxicity (IC50, nM) RT-112
Protocol: as §1

[9] = Solubility of SDC-TRAP-0063 (ganetespib placebo formulation, PEG-300); assay type: physicochemical; conditions: for solubility at 1 h / solubility at 1 day / solubility at 3 days / solubility at 7 days: ganetespib placebo formulation, organic solvent or mixture, thermodynamic from solid
Protocol: Concentration of dissolved drug was determined by HPLC assay method at 1 hr, 1 day, 3 days and 7 days.

MCF-7 xenografts = conditions: mouse, in vivo
Protocol: MCF-7 breast cancer cells were purchased from ATCC. The cells were maintained in vitro as a monolayer culture in McCoy's 5a Medium. Fetal bovine serum was then added to the medium. The final concentration of fetal bovine serum was 10%. Cells were cultured at 37° C. and 5% CO2. The tumor cells were routinely sub-cultured twice weekly by trypsin-EDTA treatment. Cells in an exponential growth phase were harvested and counted for tumor inoculation.
75 24-30 g, 10-13 week old, female CD-1 nude mice were inoculated with the MCF-7 cells (5.0×10^6/mouse) orthotopically in mammary fat pad (0.1 mL/mouse). 60 days estrogen pellets was implanted the day prior to cell implantations. When the average tumor volume reached about 100-225 mm^3, 40 of the inoculated mice were selected based on tumor growth and randomly grouped into 5 treatment groups (8 mice per group) according to the following table. Mice that were not put on treatment were euthanized.
During the treatment period, the implanted tumors were measured by caliper twice per week. […] Animal body weights were also weighed and recorded 5× per week.

[10] = SCLC xenograft tumors, 24 hrs after drug exposure
[11] = kinetic solubility in ganetespib placebo formulation, Lot6
[12] = kinetic solubility in ganetespib placebo formulation, Lot8

In the case of `CCc1c2c(nc3ccc(OC(=O)N4CCC(CCn5ccc6cc(-n7c(O)nnc7-c7cc(C(C)C)c(O)cc7O)ccc65)CC4)cc13)-c1cc3c(c(=O)n1C2)COC(=O)[C@]3(O)CC` [SDC-TRAP-0063, 4,11-diethyl-4-hydroxy-3,14-dioxo-3,4,12,14-tetrahydro-1H-pyrano[3′,4′:6,7]indolizino[1,2-b]quinolin-9-yl 4-(2-(5-(3-(2,4-dihydroxy-5-isopropylphenyl)-5-hydroxy-4H-1,2,4-triazol-4-yl)-1H-indol-1-yl)ethyl)piperidine-1-carboxylate], the solubility thermodynamic [1] is reported as ~44 mg/mL (≈ 50 mM), the “kinetics of acetyl-histone H3 induction” value ([2]; SCLC xenograft tumors, 24, 72 and 96 hrs) is reported as “gradual increase in H3ac levels, peaking at 96 hr” and the “Hsp90 client proteins (EGFR, MET, CDC2) and Hsp70 expression” value [2, 10] is reported as “slight increase in Hsp70 with no impact on EGFR, MET or CDC2”. For the same compound, the “markers for DNA damage (acetyl-histone H3, p53, p-H2AX)” value [2, 10] was “dramatic increase in markers for DNA damage”, the “phosphorylation of p53” value ([2]; SCLC xenograft tumors, out to 96 hrs) was “induced by both agents, though more so with SDC-TRAP-0063” and the “Tumor Conc.” value ([3]; 6 h) was 1.61 nmol/g of tissue. The “Tumor Conc.” value ([3]; 24 h) was 0.203 nmol/g of tissue, the “Tumor Conc.” value ([3]; 48 h) was 0.0188 nmol/g of tissue and the “Tumor Conc.” value ([3]; […]) was 6.43 nmol/g of tissue. For the same compound, the “Plasma Conc.” value [3] was “BQL”, the “tumor targeting (tissue distribution in plasma, tumor and heart)” value ([3]; iv, 50 mg/kg) was “selectively targets and accumulates in tumor cells” and the “Mass Retention” value [4] was 18.7%. For the same compound, the H2AX phosphorylation ([5]; HCT-116 tumors, 24 hr) was “stimulate H2AX phosphorylation at 24 hr”, the “HSP70 and Hsp90 client protein (EGFR, MET) expression” value ([5]; HCT-116 tumors, 24 hr exposure) was “induces HSP70 comparable to irinotecan but much less than ganetespib; also recorded: lack of effects on EGFR and MET stability” and the “Hsp90 inhibition (conclusion from PD)” value ([5]; HCT-116 xenograft tumors) was “weak Hsp90 inhibitor”. The “kinetics of H2AX phosphorylation” value ([5]; HCT-116 xenograft tumors) was “beginning at 8 hr and leveling off at 24 hr”, the IC50 (HER2) was 793 nM and the “antitumor activity in SK-OV-3 xenografts (FIG. 25)” value (SK-OV-3 xenografts) was “maintains the tumor growth inhibition for several weeks; also recorded: statistically significant inhibitory impact on the growth of SK-OV-3 xenografts”. The IC50 [6] was 320 nM, the logP [7] was 4.69 and the pKa [7] was 9.27. For the same compound, the “Stability remark beside solubility” value ([7]; In water (pH = 11.8*)) was “not stable”, the solubility ([7]; aqueous buffer, In water (pH = 9.7)) was 0.033 mg/mL (≈ 0.0375 mM) and the solubility ([7]; aqueous buffer, In water (pH = 11.8*)) was 0.926 mg/mL (≈ 1.05 mM). The solubility ([7]; ethanol, organic solvent or mixture, In EtOH) was 1.56 mg/mL (≈ 1.77 mM), the solubility ([7]; organic solvent or mixture, In PEG300) was 5.64 mg/mL (≈ 6.41 mM) and the IC50 [8] was 83 nM. The solubility at 1 h ([9]; kinetic solubility in ganetespib placebo formulation (35% v/v tween 80, 40% v/v PEG-300, 25% v/v dehydrated alcohol), Lot6) was 11.3 mg/mL (≈ 12.8 mM), the solubility at 1 day [9, 11] was 10.2 mg/mL (≈ 11.6 mM) and the solubility at 3 days [9, 11] was 9.68 mg/mL (≈ 11 mM). The solubility at 7 days [9, 11] was 7.32 mg/mL (≈ 8.32 mM), the solubility at 1 h [9, 12] was 36.2 mg/mL (≈ 41.1 mM) and the solubility at 1 day [9, 12] was 35.3 mg/mL (≈ 40.1 mM). The solubility at 3 days [9, 12] was 30 mg/mL (≈ 34.1 mM), the solubility at 7 days [9, 12] was 19.7 mg/mL (≈ 22.4 mM) and the “solubility over time (1 hr, 1 day, 3 days, 7 days)” value ([9]; lot 6 and lot 8, ganetespib placebo formulation (35% v/v tween 80, 40% v/v PEG-300, 25% v/v dehydrated alcohol), ambient) was “appear to decrease over time, although no any degradation was observed”. For the same compound, the safety profile (MCF-7 xenografts) was “good safety profile”.
